{"source": "patent US11554110B2", "about": "“Pemafibrate dosing regimens” (Kowa Company, Ltd., priority 2017, dated 2023)", "type_in_all_cases": "in vivo, healthy adult subjects", "key": {"[1]": {"assay": "Drug interaction study of pemafibrate with rifampicin (plasma pharmacokinetics of pemafibrate)", "conditions": "for AUC(0-inf) / Cmax: human, plasma, po, 0.4 mg, geometric mean, oral, fasting", "description": "A study was conducted to investigate the effect of rifampicin on the pharmacokinetics of pemafibrate in healthy adult subjects.\nSubjects were orally administered on the following schedule. The administration of 0.4 mg of pemafibrate on Days 1 and 4 was carried out under fasting for at least 8 hours, and the fasting was maintained for 4 hours after the administration. • Day 1: Pemafibrate 0.4 mg alone • Day 4: A single dose of 0.4 mg of pemafibrate plus 600 mg of rifampicin • Days 5-6: Rifampicin 600 mg alone [Measurement]\n(§1) Plasma concentration of pemafibrate was measured on blood samples from patients taken prior to and at 0.25, 0.5, 1, 1.5, 2, 3, 4, 6, 8, 10, 12, 14, 16, 24, 36, 48, 72 hours after administration of the drug on Days 1 and 4.\nFor estimates of the Cmax of pemafibrate and the area under the concentration-time curves (AUC0-inf) up to infinity hours, the geometric mean values and the ratios of the geometric mean values for concomitant administration to those for the single administration are shown in Table 1."}, "[2]": {"assay": "Drug interaction study of pemafibrate with clarithromycin (plasma pharmacokinetics of pemafibrate)", "conditions": "for AUC(0-inf) / Cmax: human, plasma, po, 0.4 mg, geometric mean", "description": "A study was conducted to investigate the effect of clarithromycin on the pharmacokinetics of pemafibrate in healthy adult subjects.\n20 healthy adult subjects\nSubjects were orally administered on the following schedule. The administration of 0.4 mg of pemafibrate on Days 1 and 9 was carried out under fasting for at least 8 hours, and the fasting was maintained for 4 hours after the administration. • Day 1: Pemafibrate 0.4 mg alone • Day 4 to 8: Clarithromycin 500 mg twice per day (1000 mg/day) • Day 9: Pemafibrate 0.4 mg single dose and Clarithromycin 500 mg twice per day (1000 mg/day) • Day 10 to 11: Clarithromycin 500 mg twice per day (1000 mg/day) Measurement\nPlasma concentration of pemafibrate was measured on blood samples from patients collected prior to and at 0.25, 0.5, 1, 1.5, 2, 3, 4, 6, 8, 10, 12, 14, 16, 24, 36, 48, 72 hours after administration of 0.4 mg of pemafibrate on Days 1 and 9.\nFor estimates of the Cmax of pemafibrate and the area under the concentration-time curves (AUC0-inf) up to infinity hours, the geometric mean values and the ratios of the geometric mean values for concomitant administration to those for the single administration are shown in Table 2."}, "[3]": {"assay": "Drug interaction study of pemafibrate with cyclosporine (plasma pharmacokinetics of pemafibrate)", "conditions": "for AUC(0-inf) / Cmax: human, plasma, po, 0.4 mg, geometric mean, oral, fasting", "description": "A study was conducted to investigate the effect of cyclosporine on the pharmacokinetics of pemafibrate in healthy adult subjects.\nSubjects were orally administered on the following schedule. Drug administration was carried out under fasting for at least 8 hours, and fasting was maintained for 4 hours after administration. • Day 1: Pemafibrate 0.4 mg alone • Day 4: Combined single dose of 0.4 mg of pemafibrate and 600 mg of cyclosporine (Neoral® or its equivalent) [Measurement]\nas §1\nFor estimates of the Cmax of pemafibrate and the area under the concentration-time curves (AUC0-inf) up to infinity hours, the geometric mean values and the ratios of the geometric mean values for concomitant administration to those for the single administration are shown in Table 3."}, "[4]": {"assay": "Drug interaction study of pemafibrate with clopidogrel (plasma pharmacokinetics of pemafibrate)", "conditions": "for AUC(0-inf) / Cmax: human, plasma, po; for AUC0-inf ratio (concomitant use/single use) / Cmax ratio (concomitant use/single use): ratio of geometric means", "description": "A study was conducted to investigate the effect of clopidogrel on the pharmacokinetics of pemafibrate in healthy adult subjects.\nSubjects were orally administered on the following schedule. Pemafibrate administration on Days 1, 4, and 7 was carried out under fasting for at least 8 hours and maintained fasting for 4 hours after administration. • Day 1: Pemafibrate 0.4 mg alone • Day 4: A single dose of 0.4 mg of pemafibrate plus 391.5 mg of clopidogrel sulfate (equivalent to 300 mg of clopidogrel) • Day 5 to 6: Clopidogrel Sulfate 91.875 mg (equivalent to Clopidogrel 75 mg) alone • Day 7: A single dose of 0.4 mg of pemafibrate and 91.875 mg of clopidogrel sulfate (equivalent to 75 mg of clopidogrel) • Day 8 to 9: Clopidogrel Sulfate 91.875 mg (equivalent to Clopidogrel 75 mg) alone Measurement\nPlasma concentration of pemafibrate was measured on blood samples from patients taken prior to and at 0.25, 0.5, 1, 1.5, 2, 3, 4, 6, 8, 10, 12, 14, 16, 24, 36, 48, 72 hours after administration of the drug on Days 1, 4, and 7.\nFor estimates of the Cmax of pemafibrate and the area under the concentration-time curves (AUC0-inf) up to infinity hours, the geometric mean values and the ratios of the geometric mean values of the single-dose concomitant administration (Day 4) to those for the single administration (Day 1) are shown in Table 4.\nFor the Cmax and AUC0-inf of pemafibrate, the geometric mean values and the ratios of the geometric mean values for concomitant administration after repeated administration of clopidogrel (day 7) to those for the single administration (day 1) are shown in Table 5."}, "[5]": {"conditions": "Day 1, pemafibrate 0.4 mg alone, read-out: AUC0-inf, single administration"}, "[6]": {"conditions": "Day 1, pemafibrate 0.4 mg alone, read-out: Cmax, single administration"}, "[7]": {"conditions": "ratio of geometric means, with rifampicin 600 mg vs pemafibrate alone"}, "[8]": {"conditions": "ratio of geometric means, with clarithromycin 1000 mg/day vs pemafibrate alone"}, "[9]": {"conditions": "ratio of geometric means, with cyclosporine 600 mg vs pemafibrate alone"}, "[10]": {"conditions": "Day 4 (clopidogrel 300 mg single dose) vs Day 1"}, "[11]": {"conditions": "Day 7 (after repeated clopidogrel, 75 mg) vs Day 1"}}, "data": [{"molecule": "CC[C@@H](Oc1cccc(CN(CCCOc2ccc(OC)cc2)c2nc3ccccc3o2)c1)C(=O)O", "note": "[pemafibrate, (2R)-2-[3-({1,3-benzoxazol-2-yl[3-(4-methoxyphenoxy)propyl]amino}methyl)phenoxy]butanoic acid]", "values": [{"measurement": "plasma concentration of pemafibrate, concomitant vs alone", "setting": "[1]; concomitant administration with rifampicin compared with pemafibrate alone", "value": "increase in the plasma concentration of pemafibrate"}, {"measurement": "AUC(0-inf)", "setting": "[1]; [5]", "value": 20.1, "unit": "ng·h/mL"}, {"measurement": "Cmax", "setting": "[1]; [6]", "value": 5.67, "unit": "ng/mL"}, {"measurement": "AUC(0-inf)", "setting": "[1]; Day 4, single dose pemafibrate 0.4 mg plus rifampicin 600 mg, read-out: AUC0-inf, concomitant administration", "value": 219, "unit": "ng·h/mL"}, {"measurement": "Cmax", "setting": "[1]; Day 4, single dose pemafibrate 0.4 mg plus rifampicin 600 mg, read-out: Cmax, concomitant administration", "value": 53.5, "unit": "ng/mL"}, {"measurement": "AUC0-inf ratio (concomitant use/single use)", "setting": "[1]; [7]", "value": 10.9009}, {"measurement": "Cmax ratio (concomitant use/single use)", "setting": "[1]; [7]", "value": 9.436}, {"measurement": "plasma concentration of pemafibrate, concomitant vs alone", "setting": "[2]; concomitant administration with clarithromycin compared with pemafibrate alone", "value": "increase in the plasma concentration of pemafibrate"}, {"measurement": "AUC(0-inf)", "setting": "[2]; Day 1, pemafibrate 0.4 mg alone, oral, fasting, read-out: AUC0-inf, single administration", "value": 17, "unit": "ng·h/mL"}, {"measurement": "Cmax", "setting": "[2]; Day 1, pemafibrate 0.4 mg alone, oral, fasting, read-out: Cmax, single administration", "value": 4.67, "unit": "ng/mL"}, {"measurement": "AUC(0-inf)", "setting": "[2]; Day 9, pemafibrate 0.4 mg single dose with clarithromycin 500 mg twice per day (given from Day 4), read-out: AUC0-inf, concomitant administration", "value": 35.7, "unit": "ng·h/mL"}, {"measurement": "Cmax", "setting": "[2]; Day 9, pemafibrate 0.4 mg single dose with clarithromycin 500 mg twice per day (given from Day 4), read-out: Cmax, concomitant administration", "value": 11.3, "unit": "ng/mL"}, {"measurement": "AUC0-inf ratio (concomitant use/single use)", "setting": "[2]; [8]", "value": 2.0975}, {"measurement": "Cmax ratio (concomitant use/single use)", "setting": "[2]; [8]", "value": 2.4246}, {"measurement": "plasma concentration of pemafibrate, concomitant vs alone", "setting": "[3]; concomitant administration with cyclosporine compared with pemafibrate alone", "value": "increase in the plasma concentration of pemafibrate"}, {"measurement": "AUC(0-inf)", "setting": "[3]; [5]", "value": 13.4, "unit": "ng·h/mL"}, {"measurement": "Cmax", "setting": "[3]; [6]", "value": 4.59, "unit": "ng/mL"}, {"measurement": "AUC(0-inf)", "setting": "[3]; Day 4, combined single dose pemafibrate 0.4 mg and cyclosporine 600 mg, read-out: AUC0-inf, concomitant administration", "value": 187, "unit": "ng·h/mL"}, {"measurement": "Cmax", "setting": "[3]; Day 4, combined single dose pemafibrate 0.4 mg and cyclosporine 600 mg, read-out: Cmax, concomitant administration", "value": 41.2, "unit": "ng/mL"}, {"measurement": "AUC0-inf ratio (concomitant use/single use)", "setting": "[3]; [9]", "value": 13.9947}, {"measurement": "Cmax ratio (concomitant use/single use)", "setting": "[3]; [9]", "value": 8.9644}, {"measurement": "plasma concentration of pemafibrate, concomitant vs alone", "setting": "[4]; concomitant administration after repeated administration of clopidogrel (day 7) compared with pemafibrate alone (day 1)", "value": "increase in the plasma concentration of pemafibrate"}, {"measurement": "AUC0-inf, concomitant administration", "setting": "[4]; geometric mean, Day 7, pemafibrate 0.4 mg plus clopidogrel sulfate 91.875 mg (equivalent to 75 mg of clopidogrel) after repeated administration of clopidogrel", "value": 33.5611, "unit": "ng·h/mL"}, {"measurement": "AUC(0-inf)", "setting": "[4]; 0.4 mg, geometric mean, Day 1, pemafibrate 0.4 mg alone, oral, fasting, read-out: AUC0-inf, single administration", "value": 16.1, "unit": "ng·h/mL"}, {"measurement": "Cmax", "setting": "[4]; 0.4 mg, geometric mean, Day 1, pemafibrate 0.4 mg alone, oral, fasting, read-out: Cmax, single administration", "value": 4.77, "unit": "ng/mL"}, {"measurement": "Cmax", "setting": "[4]; 0.4 mg, geometric mean, Day 4, single dose pemafibrate 0.4 mg plus clopidogrel sulfate 391.5 mg (equivalent to 300 mg of clopidogrel), read-out: Cmax, concomitant administration", "value": 7.08, "unit": "ng/mL"}, {"measurement": "AUC(0-inf)", "setting": "[4]; geometric mean, Day 4, single dose pemafibrate 0.4 mg plus clopidogrel sulfate 391.5 mg (equivalent to 300 mg of clopidogrel), read-out: AUC0-inf, concomitant administration", "value": 38.1, "unit": "ng·h/mL"}, {"measurement": "Cmax", "setting": "[4]; geometric mean, Day 7, pemafibrate 0.4 mg plus clopidogrel sulfate 91.875 mg (equivalent to 75 mg of clopidogrel) after repeated administration of clopidogrel, read-out: Cmax, concomitant administration", "value": 6.39, "unit": "ng/mL"}, {"measurement": "AUC0-inf ratio (concomitant use/single use)", "setting": "[4]; [10]", "value": 2.3728}, {"measurement": "Cmax ratio (concomitant use/single use)", "setting": "[4]; [10]", "value": 1.4855}, {"measurement": "AUC0-inf ratio (concomitant use/single use)", "setting": "[4]; [11]", "value": 2.0876}, {"measurement": "Cmax ratio (concomitant use/single use)", "setting": "[4]; [11]", "value": 1.3415}, {"measurement": "plasma concentration of pemafibrate, concomitant vs alone", "setting": "[4]; single-dose concomitant administration with clopidogrel (Day 4) compared with pemafibrate alone (Day 1)", "value": "increase in the plasma concentration of pemafibrate"}]}]}
